Earlier results in US20220054615A1 (priority 2018, published 2022).

Key:
IgG2a = settings: mouse, in vivo
[1] = test system: human peripheral blood mononuclear cells (PBMCs)

CCCCCCCCCCCC(=O)CC(=O)N[C@H](COCC[C@@H](CCCCCCC)OC(=O)CCCCCCCCCCC)COP(=O)([O-])OCCNC(=O)NCCOP(=O)([O-])OC[C@@H](COCC[C@@H](CCCCCCC)OC(=O)CCCCCCCCCCC)NC(=O)CC(=O)CCCCCCCCCCC.[Na+].[Na+] [E6020, dodecanoic acid, (1R,6R, 22R, 27R)-1,27-dihexyl-9,19-dihydroxy-9,19-dioxido-14-oxo-6,22-bis [(1,3-di oxotetradecyl)amino]-4,8,10, 18, 20, 24-hexaoxa-13,15-di aza-9,19-dephosphaheptacosane-1,27-diyl ester, disodium salt]
enhance: IgG2a (IgG2a) | GM-CSF, IL-1, IL-6 and TNF-α [1] | GM-CSF, IL-1, IL-6 and TNF-α (mouse spleen)
